Laboratory results published in patent publication US6316450A, “Compounds” (SmithKline Beecham p.l.c., priority 1997, dated 2001).
Where a name gives a salt, the structure may show the parent alone. Read-outs that look alike come from different tables or passages of the source.

Molecular target: human cloned 5-HT6 receptors (Homo sapiens, UniProt P50406)
Test: biochemical
Type: binding
Parameters: selectivity: reference not given here
[1] = [3H]-LSD, HeLa-5HT6 cell membranes, pH 7.7, 37° C., read-out: pKi (converted)
[2] = selective 5-HT6 receptor antagonist activity

Chain of human cloned 5-HT6 receptors (P50406 whole entry): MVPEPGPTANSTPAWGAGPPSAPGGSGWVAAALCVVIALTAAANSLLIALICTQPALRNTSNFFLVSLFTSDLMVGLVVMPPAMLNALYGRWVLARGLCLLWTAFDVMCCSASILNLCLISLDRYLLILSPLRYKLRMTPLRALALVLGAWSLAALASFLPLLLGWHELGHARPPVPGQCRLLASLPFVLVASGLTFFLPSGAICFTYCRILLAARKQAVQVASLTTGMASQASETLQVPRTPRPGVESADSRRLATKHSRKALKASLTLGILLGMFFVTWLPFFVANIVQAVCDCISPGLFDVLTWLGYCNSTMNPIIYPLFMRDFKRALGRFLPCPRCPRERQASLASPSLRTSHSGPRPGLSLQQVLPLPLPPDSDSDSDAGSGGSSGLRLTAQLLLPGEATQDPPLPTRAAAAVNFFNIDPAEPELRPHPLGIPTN

SMILES | Ki [1] [nM] | selectivity [2] | Ki [nM] | selectivity | Ki (read-out: pKi (converted)) [nM]
COc1ccc(S(=O)(=O)N2CCc3c(OC)ccc(OC)c3C2)cc1N1CCN(C)CC1.Cl [Compound 21, 5,8-Dimethoxy-2-[4-methoxy-3-(4-methylpiperazin-1-yl)-benzenesulfonyl]-1,2,3,4-tetrahydroisoquinoline hydrochloride] | < 3.16 | > 100 |  |  | 
CCc1ccccc1NS(=O)(=O)c1ccc(OC)c(N2CCNCC2)c1.Cl [Compound 88, N-(2-Ethylphenyl)-4-methoxy-3-piperazin-1-ylbenzenesulfonamide hydrochloride] | < 3.16 | > 100 |  |  | 
C=Cc1ccc(NS(=O)(=O)c2ccc(OC)c(N3CCN(C)CC3)c2)cc1.Cl [Compound 63, 4-Methoxy-3-(4-methylpiperazin-1-yl)-N-(4-vinylphenyl)benzenesulfonamide hydrochloride] | < 3.16 | > 100 |  |  | 
COc1ccc(S(=O)(=O)Nc2ccccc2OC(F)(F)F)cc1N1CCN(C)CC1.Cl [Compound 32, N-(2-Trifluoromethoxyphenyl)-4-methoxy-3-(4-methylpiperazin-1-yl)-benzenesulfonamide hydrochloride] | < 3.16 | > 100 |  |  | 
COc1ccc(S(=O)(=O)N2CCCc3ccc(C(F)(F)F)cc32)cc1N1CCN(C)CC1 [Compound 8, 1-[4-Methoxy-3-(4-methylpiperazin-1-yl)-benzenesulfonyl]-7-trifluoromethyl-1,2,3,4-tetrahydroquinoline] | < 3.16 | > 100 |  |  | 
COc1ccc(Cl)cc1NS(=O)(=O)c1ccc(OC)c(N2CCNCC2)c1.Cl [Compound 132, N-(5-Chloro-2-methoxyphenyl)-4-methoxy-3-piperazin-1-ylbenzenesulfonamide hydrochloride] | < 3.16 | > 100 |  |  | 
COc1ccc(S(=O)(=O)Nc2ccc(C(C)(C)C)cc2)cc1N1CCNCC1.Cl [Compound 107, N-(4-tert-Butylphenyl)-4-methoxy-3-piperazin-1-ylbenzenesulfonamide hydrochloride] | < 3.16 | > 100 |  |  | 
COc1ccc(S(=O)(=O)Nc2cccc(C(F)(F)F)c2)cc1N1CCNCC1.Cl [Compound 89, 4-Methoxy-3-piperazin-1-yl-N-(3-trifluoromethylphenyl)benzenesulfonamide hydrochloride] | < 3.16 | > 100 |  |  | 
COc1ccc(S(=O)(=O)Nc2ccc(Br)c(C(F)(F)F)c2)cc1N1CCN(C)CC1.Cl [Compound 67, N-(4-Bromo-3-trifluoromethylphenyl)-4-methoxy-3-(4-methylpiperazin-1-yl)-benzenesulfonamide hydrochloride] | < 3.16 | > 100 |  |  | 
COc1ccc(S(=O)(=O)N2CCc3cccc(Cl)c3C2)cc1N1CCN(C)CC1.Cl [Compound 44, 8-Chloro-2-[4-methoxy-3-(4-methylpiperazin-1-yl)benzenesulfonyl]-1,2,3,4-tetrahydroisoquinoline hydrochloride] | < 3.16 | > 100 |  |  | 
COc1ccc(S(=O)(=O)Nc2ccc(F)cc2Cl)cc1N1CCN(C)CC1.Cl [Compound 45, N-(2-Chloro-4-fluorophenyl)-4-methoxy-3-(4-methylpiperazin-1-yl)-benzenesulfonamide hydrochloride] | < 3.16 | > 100 |  |  | 
COc1ccc(S(=O)(=O)Nc2ccccc2C(C)C)cc1N1CCNCC1.Cl [Compound 79, N-(2-Isopropylphenyl)-4-methoxy-3-piperazin-1-yl-benzenesulfonamide hydrochloride] |  |  | < 3.16 | > 100 | 
COc1ccc(S(=O)(=O)Nc2cc(Cl)c(Cl)cc2Cl)cc1N1CCNCC1.Cl [Compound 131, N-(2,4,5-Trichlorophenyl)-4-methoxy-3-piperazin-1-ylbenzenesulfonamide hydrochloride] | < 3.16 | > 100 |  |  | 
COc1ccc(S(=O)(=O)Nc2cc(Br)ccc2Br)cc1N1CCNCC1.Cl [Compound 100, N-(2,5-Dibromophenyl)-4-methoxy-3-piperazin-1-ylbenzenesulfonamide hydrochloride] | < 3.16 | > 100 |  |  | 
COc1ccc(S(=O)(=O)Nc2ccc(C)c(C)c2)cc1N1CCN(C)CC1.Cl [Compound 41, N-(3,4-Dimethylphenyl)-4-methoxy-3-(4-methylpiperazin-1-yl)-benzenesulfonamide hydrochloride] | < 3.16 | > 100 |  |  | 
COc1ccc(S(=O)(=O)Nc2ccccc2Br)cc1N1CCNCC1.Cl [Compound 91, N-(2-Bromophenyl)-4-methoxy-3-piperazin-1-ylbenzenesulfonamide hydrochloride] |  |  | < 3.16 | > 100 | 
COc1ccc(S(=O)(=O)N2CCCc3c(Cl)cc(Cl)cc32)cc1N1CCN(C)CC1.Cl [Compound 73, 5,7-Dichloro-1-[4-methoxy-3-(4-methylpiperazin-1-yl)benzenesulfonyl]-1,2,3,4-tetrahydroquinoline hydrochloride] | < 3.16 | > 100 |  |  | 
COc1ccc(S(=O)(=O)N2CCCc3ccc(C(F)(F)F)cc32)cc1N1CCNCC1 [Compound 29, 1-(4-Methoxy-3-piperizin-1-ylbenzenesulfonyl)-7-trifluoromethyl-1,2,3,4-tetrahydroquinoline hydrochloride] | < 3.16 | > 100 |  |  | 
COc1ccc(S(=O)(=O)Nc2ccc(Cl)c(C(F)(F)F)c2)cc1N1CCN(C)CC1.Cl [Compound 69, N-(4-Chloro-3-trifluoromethylphenyl)-4-methoxy-3-(4-methylpiperazin-1-yl)-benzenesulfonamide hydrochloride] | < 3.16 | > 100 |  |  | 
COc1ccc(S(=O)(=O)N2CCCc3ccc(Br)cc32)cc1N1CCNCC1.Cl [Compound 145, 7-Bromo-1-(4-methoxy-3-piperazin-1-ylbenzenesulfonyl)-1,2,3,4-tetrahydroquinoline hydrochloride] |  |  |  | > 100 | < 3.16
COc1ccc(S(=O)(=O)Nc2cccc(Br)c2)cc1N1CCN(C)CC1.Cl [Compound 3, N-(3-Bromophenyl)-4-methoxy-3-(4-methylpiperazin-1-yl)benzene sulfonamide hydrochloride] | < 3.16 | > 100 |  |  | 
COc1ccc(S(=O)(=O)Nc2ccccc2I)cc1N1CCN(C)CC1.Cl [Compound 53, N-(2-Iodophenyl)-4-methoxy-3-(4-methylpiperazin-1-yl)benzenesulfonamide hydrochloride] | < 3.16 | > 100 |  |  | 
C=C(C)c1ccccc1NS(=O)(=O)c1ccc(OC)c(N2CCNCC2)c1.Cl [Compound 104, N-(2-Isopropenylphenyl)-4-methoxy-3-piperazin-1-ylbenzenesulfonamide hydrochloride] | < 3.16 | > 100 |  |  | 
COc1ccc(S(=O)(=O)Nc2ccc(I)cc2Cl)cc1N1CCN(C)CC1.Cl [Compound 54, N-(2-Chloro-4-iodophenyl)-4-methoxy-3-(4-methylpiperazin-1-yl)-benzenesulfonamide hydrochloride] | < 3.16 | > 100 |  |  | 
COc1ccc(S(=O)(=O)Nc2ccccc2SC)cc1N1CCNCC1.Cl [Compound 85, 4-Methoxy-N-(2-methylsulfanylphenyl)-3-piperazin-1-ylbenzenesulfonamide hydrochloride] | < 3.16 | > 100 |  |  | 
COc1ccc(S(=O)(=O)Nc2ccccc2-c2ccccc2)cc1N1CCNCC1.Cl [Compound 113, N-Biphenyl-2-yl-4-methoxy-3-piperazin-1-ylbenzenesulfonamide hydrochloride] | < 3.16 | > 100 |  |  | 
